Where two headings read alike, the source gives them in different places.
System: FD (familial dysautomonia) IKBKAP minigene, exon 20 inclusion, in HEK293T cells
Assay: Primary splicing assay (FD IKBKAP minigene, Firefly/Renilla luciferase reporter in HEK293T)
Type: cell-based, human
Details: for EC (maximum kinetin efficacy) / Emax: Homo sapiens, HEK-293T; for EC (maximum kinetin efficacy): HEK293T, read-out: ECk (compound concentration at which the maximum kinetin efficacy (200 μM) is reached); for ECk (RT-PCR): determined by RT-PCR, footnote a Firefly inhibitor, footnote b Renilla interference
Procedure: As used herein, the expression “ECk” refers to the compound concentration at which the maximum kinetin efficacy (200 μM) is reached.
Splicing analysis was made possible by using an FD (familial dysautomonia) IKBKAP minigene which contained exon 19 through exon 21, including intervening introns, and also the T→C Thymine to cytosine transition located 6 base-pairs from the end of IKBKAP exon 20; See SEQ ID NO:3 for the complete sequence of plasmid pcDNA3.1/V5HisTOPO with Renilla-Familial Dysautonomia minigene-Firefly. Firefly luciferase (SEQ ID NO:14) was utilized as a splicing reporter, located downstream of exon 21, and Renilla luciferase (SEQ ID NO:13) was used as a control, located upstream of exon 19. The sequence of exon 19 is presented as SEQ ID NO:7; the Intron between Exon 19 and Exon 20 is SEQ ID NO:8; exon 20 is SEQ ID NO:9; the intron between […]; exon 21 is SEQ ID NO: 11, and the spliced sequence of exons 19-20-21 is SEQ ID NO:12. HEK293T cells were plated in a 6-well plate 24 hours prior to transfection. Transfection was carried out using a mixture of Opti-MEM (GIBCO ref. 31985), IKBKAP minigene, and Fugene HID (PROMEGA ref. E2311), incubated in DMEM media containing HEK293T cells at 37° C. The ratio of Opti-MEM, minigene, and Fugene was kept at approximately 9:1.5:1, with a total volume of 150 μL of transfection mixture applied per well.
After 4 hours of transfection, the cells were then plated in a 96-well plate coated with poly-L-lysine (SIGMA cat.P4707) for treatment scheduled 24 hours later. […] After 24 hours of treatment, cells were washed in the poly-L-lysine coated 96-well plate using PBS and subsequently harvested using Passive Lysis Buffer (Promega cat.E196). Cell lysate was transferred to a black and white 96-well plate and analyzed for splicing correction using a Glomax luminometer (PROMEGA GloMax® 96 Microplate Luminometer w/Dual Injectors cat.E6521) and Promega Dual Glo Firefly and Stop and Glo Renilla reagents (Cat.E196). The compound's ability to correct splicing and promote exon 20 inclusion was marked by an increase in Firefly signal. Renilla signal, which is independent of exon 20 inclusion, was used to correct for cell number. Using the ratio of Firefly to Renilla signal, a dose response curve was produced, which referenced kinetin and DMSO Firefly/Renilla ratios as positive and negative controls, respectively.

[1] = Firefly/Renilla ratio, 24 hours of treatment
[2] = max efficacy in Primary Assay, Firefly/Renilla ratio, kinetin and DMSO as positive and negative controls, 24 hours of treatment, read-out: Emax (%)
[3] = max efficacy, value marked (RT-PCR), footnote a: Firefly inhibitor, read-out: Emax (%) (RT-PCR)

Row | SMILES | EC (maximum kinetin efficacy) [1] [µM] | Emax [2] [%] | further results
1 | COCCOc1nc2c(NCc3nccs3)nc(Cl)nc2[nH]1 [(328)] | 1.79 | 184 | 
2 | Clc1nc(NCc2csnn2)c2cc[nH]c2n1 [(498)] |  | 37.7 | 
3 | O=C(O)Cn1ccc2c(NCc3ccco3)nc(Cl)nc21 [(167)] |  | 37 | 
4 | Cc1cc(CNc2nc(Cl)nc3[nH]cnc23)ccn1 [(196)] |  | 7 | 
5 | COc1cc(CNc2nc(Cl)nc3[nH]cnc23)ccn1 [(241)] |  | 13 | 
6 | OCCOc1nc2c(NCc3nccs3)nc(Cl)nc2[nH]1 [(310)] | 1.5 | 191 | 
7 | CN(C)C(=O)Cn1ccc2c(NCc3ccco3)nc(Cl)nc21 [(153)] |  | 20 | 
8 | Cn1cnc2nc(Cl)nc(NCc3ccco3)c21 [(314)] | 2.31 | 198 | 
9 | CNc1nc2c(NCc3nccs3)nc(Cl)nc2[nH]1 [(245)] | 15.4 | 122 | 
10 | FC(F)(F)c1cccc(CNc2ncnc3[nH]cnc23)c1 [(10)] |  | 21 | 
11 | Cc1nc2c(NCc3ccco3)nc(Cl)nc2[nH]1 [(90)] | 11.8 | 159 | 
12 | FCCn1ccc2c(NCc3ccncn3)nc(Cl)nc21 [(191)] | 5.92 | 231 | 
13 | CCCOc1nc2nc(Cl)nc(NCc3nccs3)c2n1C [(335)] |  | 35 | 
14 | Fc1cc(CNc2nc(Cl)nc3[nH]ccc23)ccn1 [(487)] | 6.1 | 114 | 
15 | Cc1ccccc1CNc1ncnc2[nH]cnc12 [(14)] |  | 53 | 
16 | CNC(=O)c1nc2c(NCc3ccncn3)nc(Cl)nc2[nH]1 [(258)] | 15.8 | 165 | 
17 | c1coc(CNc2ncnc3cc[nH]c23)c1 [(22)] |  | 49 | 
18 | COc1nc(NCc2ccco2)c2nc[nH]c2n1 [(36)] |  | 18 | 
19 | Clc1nc(NCc2ccco2)c2nc(C3CC3)[nH]c2n1 [(95)] | 122 | 103 | 
20 | OCCCn1ccc2c(NCc3ccco3)nc(Cl)nc21 [(108)] |  |  | Emax [3]: 172%
21 | Clc1nc(NCc2cccs2)c2[nH]cnc2n1 [(456)] |  | 52.3 | 
22 | Clc1nc(NCc2ccncc2)c2nc(C3CCC3)[nH]c2n1 [(234)] | 19.9 | 94 | 
23 | CN(C)c1nc(NCc2ccco2)c2nc[nH]c2n1 [(60)] |  | 13 | 
24 | Cc1cc2c(NCc3ccco3)nc(Cl)nc2n1CCO [(154)] | 22.2 | 151 | 
25 | Clc1nc(NCc2nccs2)c2nc(OCC3CCC3)sc2n1 [(341)] | 4.16 | 155 | 
26 | OCCCOc1nc2c(NCc3ccco3)nc(Cl)nc2[nH]1 [(249)] | 0.72 | 256 | 

Row | SMILES | EC (maximum kinetin efficacy) [1] [µM] | Emax [2] [%] | further results
27 | Cc1cc2c(NCc3ccncn3)nc(Cl)nc2[nH]1 [(136)] | 7.52 | 143 | 
28 | Cc1[nH]c2nc(Cl)nc(NCc3ccco3)c2c1F [(159)] |  |  | Emax (max efficacy in Primary Assay, value flagged footnote a: Firefly inhibitor, read-out: Emax (%)): 228%; ECk (RT-PCR): 1 to 10 µM
29 | FCCn1ccc2c(NCc3nccs3)nc(Cl)nc21 [(192)] | 7.13 | 210 | 
30 | FC(F)(F)CN1CCC(n2ccc3c(NCc4ccco4)nc(Cl)nc32)CC1 [(200)] |  | 11 | 
31 | Cn1cnc2c(NCc3ccco3)ncnc21 [(20)] |  | 22 | 
32 | COCCOc1nc2c(NCc3ccco3)nc(Cl)nc2[nH]1 [(293)] | 1.78 | 169 | 
33 | N#Cc1c[nH]c2nc(Cl)nc(NCc3ccncn3)c12 [(152)] |  | 35 | 
34 | Clc1nc(NCc2nccs2)c2nc(OCc3ccncc3)[nH]c2n1 [(507)] | 0.77 | 167 | 
35 | Nc1nc(NCc2ccco2)c2nn[nH]c2n1 [(279)] |  | 54 | 
36 | CCCOc1nc2c(N(CCO)Cc3nccs3)nc(Cl)nc2[nH]1 [(393)] | 7.4 | 85.2 | 
37 | O=C(O)c1ccc(CNc2nc(Cl)nc3[nH]ccc23)cc1 [(106)] |  | 14 | 
38 | Clc1cc(NCc2ccncn2)n2nccc2n1 [(330)] |  | 20 | 
39 | Clc1nc(NCc2ccco2)c2nc(OCCc3ccccc3)[nH]c2n1 [(492)] |  | 54.5 | 
40 | Cc1cccc(Nc2ncnc3[nH]cnc23)c1 [(37)] | 36.5 |  | 
41 | COc1nc2c(NCc3ccco3)nc(Cl)nc2n1CCO [(297)] | 4.09 | 150 | 
42 | CCCOc1nc2c(NCc3ccncn3)nc(Cl)nc2[nH]1 [(317)] | 0.16 | 223 | 
43 | Cc1cn(CCO)c2nc(Cl)nc(NCc3nccs3)c12 [(125)] | 6.52 | 225 | 
44 | FC(F)(F)c1ccccc1Nc1ncnc2[nH]cnc12 [(18)] |  | 39 | 
45 | Cc1c[nH]c2nc(Cl)nc(NCc3ccncc3)c12 [(120)] | 2.75 | 166 | 
46 | CNC(=O)c1nc2c(NCc3ccncc3)nc(Cl)nc2[nH]1 [(250)] | 62.8 | 63 | 
47 | CN(Cc1ccncc1)c1nc(Cl)nc2[nH]ccc12 [(369)] |  | 57.8 | 
48 | FC(F)(F)COc1nc2c(NCc3ccncn3)nc(Cl)nc2[nH]1 [(331)] | 0.69 | 209 | 
49 | CC(=O)N1CCC(n2ccc3c(NCc4ccco4)nc(Cl)nc32)CC1 [(197)] |  | 14 | 
50 | Clc1ccccc1CNc1[nH]cnc2ncnc1-2 [(426)] |  | 59 | 
51 | FC(F)(F)c1nc(NCc2ccco2)c2nc[nH]c2n1 [(44)] |  | 19 | 
52 | Cc1c[nH]c2nc(Cl)nc(NCc3ccco3)c12 [(84)] |  |  | Emax [3]: 251%; ECk (RT-PCR): 1 to 10 µM

Row | SMILES | EC (maximum kinetin efficacy) [1] [µM] | Emax [2] [%] | further results
53 | Fc1nc(NCc2nccs2)c2nc[nH]c2n1 [(367)] |  | 94 | 
54 | CC(Nc1nc(Cl)nc2[nH]cnc12)c1nccs1 (stereo not shown) [(368)] |  | 2.4 | 
55 | OCCCNc1nc2c(NCc3ccco3)nc(Cl)nc2[nH]1 [(225)] | 21.1 | 114 | 
56 | Clc1cc(NCc2nccs2)n2ncnc2n1 [(281)] |  | 17 | 
57 | Fc1nc(NCc2ccco2)c2nc[nH]c2n1 [(58)] | 17.9 | 155 | 
58 | Clc1nc2c(c(NCc3ccco3)n1)COC2 [(503)] |  | 27.2 | 
59 | CC(C)Oc1nc2c(NCc3ccco3)nc(Cl)nc2[nH]1 [(239)] | 2.6 | 147 | 
60 | Fc1c[nH]c2nc(Cl)nc(NCc3ccco3)c12 [(81)] | 3.08 |  | 
61 | FC1(F)CC(COc2nc3c(NCc4ccco4)nc(Cl)nc3[nH]2)C1 [(387)] | 0.33 | 238 | 
62 | Clc1nc(NCc2ccco2)c2nc(C3CCC3)[nH]c2n1 [(231)] |  | 77 | 
63 | c1nc(NCc2ccoc2)c2nc[nH]c2n1 [(465)] |  |  | Emax [3]: 26.3%
64 | FC(F)(F)c1ccccc1CNc1ncnc2[nH]cnc12 [(23)] |  | 34 | 
65 | Clc1nc(NCc2ccncn2)c2nc(OCc3nccs3)[nH]c2n1 [(340)] | 0.95 | 220 | 
66 | Fc1ccc(Nc2ncnc3[nH]cnc23)cc1 [(34)] | 26.6 |  | 
67 | COc1nc2c(NCc3ccncc3)nc(Cl)nc2n1CCO [(287)] | 7.56 | 106 | 
68 | Clc1nc(NCc2ccco2)c2c(Cl)c[nH]c2n1 [(205)] | 6.41 | 27 | 
69 | Clc1nc(NCc2nccs2)c2nc[nH]c2n1 [(131)] | 7 | 190 | 
70 | COCCCOc1nc2c(NCc3ccco3)nc(Cl)nc2[nH]1 [(296)] | 1.81 | 178 | 
71 | c1ccc(-c2nc(NCc3ccco3)c3nc[nH]c3n2)cc1 [(38)] |  | 5 | 
72 | Fc1ccc(CCNc2ncnc3[nH]cnc23)cc1 [(442)] |  | 58.6 | 
73 | OCCNc1nc2c(NCc3ccco3)nc(Cl)nc2[nH]1 [(199)] |  | 22 | 
74 | Clc1nc(NCc2ccco2)c2cc[nH]c2n1 [(55)] | 1.71 | 173 | 
75 | Clc1nc(NCc2ccncc2)c2ncsc2n1 [(256)] | 17.4 | 129 | 
76 | Clc1nc(NCc2nccs2)c2nc(OCc3ncco3)[nH]c2n1 [(505)] | 8.07 | 140 | 
77 | CN(C)CCn1ccc2c(NCc3ccco3)nc(Cl)nc21 [(206)] |  | 27 | 

Reference: patent publication US11702417B2, “Compounds for improving mRNA splicing” (The General Hospital Corporation, priority 2015, dated 2023)
